Our source for the Kd values is PMC6059433, “Discovery of fragments that target key interactions in the signal recognition particle (SRP) as potential leads for a new class of antibiotics” (PLoS ONE, 2018).

The assay addresses T1, FtsY (FtsYNG) (Escherichia coli, UniProt P10121).
T1 construct: NG domain, 196–497 aa
Description: SPR (positive control, […] MgCl2 in running buffer); […]-TROSY-HSQC titration. It is filed as binding.

T1 sequence (P10121 196-497): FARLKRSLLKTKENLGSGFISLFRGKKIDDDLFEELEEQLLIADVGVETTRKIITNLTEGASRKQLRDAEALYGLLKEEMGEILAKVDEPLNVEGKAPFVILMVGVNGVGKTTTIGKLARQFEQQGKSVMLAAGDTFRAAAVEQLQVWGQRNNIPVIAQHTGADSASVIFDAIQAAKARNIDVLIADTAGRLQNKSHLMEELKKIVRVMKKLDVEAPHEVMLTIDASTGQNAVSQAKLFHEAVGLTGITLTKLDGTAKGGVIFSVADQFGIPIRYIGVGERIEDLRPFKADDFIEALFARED

One may read the Kd as a measure of binding affinity in units of concentration. A higher Kd goes with a looser complex. For the molecule `Nc1nc2c(ncn2[C@@H]2O[C@H](COP(=O)(O)OP(=O)(O)NP(=O)(O)O)[C@@H](O)[C@H]2O)c(=O)[nH]1` [GMPPNP], the affinity, expressed as Kd, was 280 ± 80 µM.
